Test results: patent US11401277B2, “Anti-bacterial heterocyclic compounds and their synthesis” (Bugworks Research, Inc., priority 2017, dated 2022)
Values joined by “and” are separate entries in the source; they are usually repeats but may differ in a detail not shown here. Equal entries are not always repeated. Where two headings read alike, the source gives them in different places.

Columns and labels:
E. coli [ATCC25922] = experiment: Urinary Tract Infection Rat Model (kidneys, bladder)
[1] = In vivo pharmacokinetic (PK) studies in rats; parameters: species or system Sprague-Dawley (SD) rats; settings: for Cmax / Vd / bioavailability / AUC(0-inf) / AUC(0-t) / Tmax / half-life / clearance: Sprague-Dawley, rat, plasma; for Vd: iv; for bioavailability: po, read-out: Bioavailability* (F, %); for clearance: read-out: CLp (converted)
[2] = 30 mg/kg, i.v., 1 h infusion, individual animals, 24 h post infection

Compound: Cn1c(=O)ccc2ccc(F)c(OCCNC[C@H]3CN(c4cnc5c(n4)NC(=O)CO5)C(=O)O3)c21 [Compound 2, (S)-6-(5-(((2-((7-fluoro-1-methyl-2-oxo-1,2-dihydroquinolin-8-yl)oxy)ethyl)amino)methyl)-2-oxooxazolidin-3-yl)-2H-pyrazino[2,3-b][1,4]oxazin-3(4H)-one]
- Log10 CFU/g (Left Kidney) (E. coli [ATCC25922]; [2]): 3.22 Log10 CFU/g and 3.36 Log10 CFU/g and 2.80 Log10 CFU/g
- Log10 CFU/g (Right Kidney) (E. coli [ATCC25922]; [2]): 2.77 Log10 CFU/g and 2.75 Log10 CFU/g and 2.55 Log10 CFU/g
- Log10 CFU/ml Bladder (E. coli [ATCC25922]; [2]): 4.19 Log10 CFU/ml Bladder and 3.90 Log10 CFU/ml Bladder and 3.58 Log10 CFU/ml Bladder
- effect with respect to 4 h PI control (in words) (E. coli [ATCC25922]; 10 and 30 mg/kg): significant dose dependent bactericidal effect
- AUC and Cmax versus dose (in words) ([1]; IV infusion and Oral dosing at 5, 10, 30 & 100 mg/kg doses in SD rats): Dose proportional increase
- clearance (in words) ([1]; SD rats): moderate
- half life (in words) ([1]; SD rats): moderate
- oral bioavailability (in words) ([1]; SD rats): good
- volume of distribution (in words) ([1]; SD rats): low
- Cmax ([1]; 5 mg/kg, IV (1 h infusion), male SD rats): 2800 ± 970 ng/mL
- Cmax ([1]; 10 mg/kg PO, male SD rats): 2580 ± 75 ng/mL
- Cmax ([1]; 30 mg/kg, IV (1 h infusion), male SD rats): 25200 ± 610 ng/mL
- Cmax ([1]; 100 mg/kg, IV (1 h infusion), male SD rats): 93400 ± 4400 ng/mL
- Cmax ([1]; 150 mg/kg, IV (1 h infusion), male SD rats): 112000 ± 7580 ng/mL
- Vd ([1]; male, 5 mg/kg, IV, read-out: Vd): 6.4 ± 1.07 L/kg
- Vd ([1]; male, 5 mg/kg, IV, read-out: Vss): 1.09 ± 0.13 L/kg
- Vd ([1]; male, 30 mg/kg, IV, read-out: Vd): 4.94 ± 1.8 L/kg
- Vd ([1]; male, 30 mg/kg, IV, read-out: Vss): 0.62 ± 0.05 L/kg
- Vd ([1]; male, 100 mg/kg, IV, read-out: Vd): 5.57 ± 0.56 L/kg
- Vd ([1]; male, 100 mg/kg, IV, read-out: Vss): 0.69 ± 0.02 L/kg
- Vd ([1]; male, 150 mg/kg, IV, read-out: Vd): 5.38 ± 1.1 L/kg
- Vd ([1]; male, 150 mg/kg, IV, read-out: Vss): 0.73 ± 0.07 L/kg
- bioavailability ([1]; male, 10 mg/kg): 33.3 ± 3.1%
- bioavailability ([1]; male, 30 mg/kg): 66.8 ± 14.4%
- bioavailability ([1]; male, 100 mg/kg): 38.4 ± 12.4%
- bioavailability ([1]; male, 300 mg/kg): 24.2 ± 15.6%
- AUC(0-inf) ([1]; male, 5 mg/kg, IV): 1870 ± 350 ng·h/mL
- AUC(0-t) ([1]; male, 5 mg/kg, IV): 1870 ± 350 ng·h/mL
- Tmax ([1]; male, 5 mg/kg, IV): 0.76 ± 0.02 h
- half-life ([1]; male, 5 mg/kg, IV): 1.53 ± 0.07 h
- clearance ([1]; male, 5 mg/kg, IV): 45.7 mL/min/kg
- AUC(0-inf) ([1]; male, 10 mg/kg PO): 1240 ± 100 ng·h/mL
- Tmax ([1]; male, 10 mg/kg PO): 0.25 h
- half-life ([1]; male, 10 mg/kg PO): 1.84 ± 0.15 h
- AUC(0-inf) ([1]; male, 30 mg/kg, IV): 21800 ± 150 ng·h/mL
- AUC(0-t) ([1]; male, 30 mg/kg, IV): 21780 ± 150 ng·h/mL
- Tmax ([1]; male, 30 mg/kg, IV): 1 h
- half-life ([1]; male, 30 mg/kg, IV): 2.45 ± 0.78 h
- clearance ([1]; male, 30 mg/kg, IV): 23 mL/min/kg
- AUC(0-inf) ([1]; male, 30 mg/kg, PO): 7540 ± 1620 ng·h/mL
- Cmax ([1]; male, 30 mg/kg, PO): 8500 ± 2400 ng/mL
- Tmax ([1]; male, 30 mg/kg, PO): 0.5 h
- half-life ([1]; male, 30 mg/kg, PO): 1.7 ± 0.5 h
- AUC(0-inf) ([1]; male, 100 mg/kg, IV): 118000 ± 13600 ng·h/mL
- AUC(0-t) ([1]; male, 100 mg/kg, IV): 118000 ± 13600 ng·h/mL
- Tmax ([1]; male, 100 mg/kg, IV): 1 h
- half-life ([1]; male, 100 mg/kg, IV): 4.53 ± 0.12 h
- clearance ([1]; male, 100 mg/kg, IV): 14.2 mL/min/kg
- AUC(0-inf) ([1]; male, 100 mg/kg, PO): 14400 ± 4600 ng·h/mL
- Cmax ([1]; male, 100 mg/kg, PO): 9790 ± 1100 ng/mL
- Tmax ([1]; male, 100 mg/kg, PO): 0.33 ± 0.14 h
- half-life ([1]; male, 100 mg/kg, PO): 5.32 ± 2.1 h
- AUC(0-inf) ([1]; male, 150 mg/kg, IV): 172000 ± 10700 ng·h/mL
- AUC(0-t) ([1]; male, 150 mg/kg, IV): 172000 ± 10800 ng·h/mL
- Tmax ([1]; male, 150 mg/kg, IV): 2 h
- half-life ([1]; male, 150 mg/kg, IV): 4.24 ± 0.67 h
- clearance ([1]; male, 150 mg/kg, IV): 14.5 mL/min/kg
- AUC(0-inf) ([1]; male, 300 mg/kg, PO): 27200 ± 17500 ng·h/mL
- Cmax ([1]; male, 300 mg/kg, PO): 11100 ± 3100 ng/mL
- Tmax ([1]; male, 300 mg/kg, PO): 1 h
- half-life ([1]; male, 300 mg/kg, PO): 2.2 h
